Results from patent publication US4440740A, “α-Keto aldehydes as enhancing agents of gastro-intestinal drug absorption” (Merck & Co., Inc., priority 1982, dated 1984).

Experiments:
[1] = rectal absorption of Ara-C with methylglyoxal or phenylglyoxal; settings: in vivo
Excerpt: Effect of methylglyoxal and phenylglyoxal on rectal absorption of Ara-C, 4-Amino-1β-D-Arabinofuranosyl-2(1H)-pyrimidinone (Cytarabine), an antineoplastic, antiviral agent
Ara-C present at 1% w/v concentration

[2] = rectal absorption of cyclic hexapeptide somatostatin analog with phenylglyoxal; settings: rat, in vivo, 0.4 mg, pH 5, rectal, 0.4 mg peptide, 250 μl, read-out: Percent Bioavailability
Protocol: (§1) Effect of Phenylglyoxal on Rectal and Duodenal Absorption of a Cyclic Hexapeptide Somatostatin Analog Specifically Cyclo-(N-Me-Ala-Tyr-D-Trp-Lys-Val-Phe)
(§2) 250 μl volume, pH 5/animal
(§3) Cyclo-(N--Me--Ala--Tyr--D-Trp--Lvs--Val--Phe)
microenema 250 μl at 2.5 cm intrarectal depth

[3] = duodenal absorption of cyclic hexapeptide somatostatin analog with phenylglyoxal; settings: rat, in vivo, 0.4 mg, pH 5, duodenal, 0.4 mg peptide, 250 μl, read-out: Percent Bioavailability
Protocol: as §1, §2, §3
duodenal 250 μl injection 1 cm distal to pylorus

[4] = rectal drug bioavailability in rats, aqueous microenema with α-keto aldehyde absorption enhancer, versus intravenous administration; format: in vivo; settings: 10 mg/kg
Protocol: Aqueous microenemas were administered to rats at an intrarectal depth of 2.5 cm containing 10 mg/kg target drug and 20 mg/kg α-keto aldehyde absorption enhancer. Serum samples were collected and drug bioavailability determined versus intravenous administration of the target compound. Glyoxylic acid, methylglyoxal and phenylglyoxal were tested as representative compounds in the α-keto aldehyde series. Data has been oriented for rectal delivery of two antibiotics (shown below).

Which bioavailability ([1]; rectal, Ara-C 1% w/v, adjuvant: none) does the source give for Nc1ccn([C@@H]2O[C@H](CO)[C@@H](O)[C@@H]2O)c(=O)n1 [Ara-C, 4-Amino-1β-D-Arabinofuranosyl-2(1H)-pyrimidinone, reference compound] here?
The bioavailability was 13.1%.

What about the AUC at 1.5 h ([1]; rectal, Ara-C 1% w/v, adjuvant: none, 0-90 min, read-out: 0 min-90 min (quantity head is drawing 2) of Ara-C (converted)) of the same compound?
The AUC at 1.5 h was 1250 ng·h/mL.

Which results are given for CC(C)[C@@H]1NC(=O)[C@H](CCCCN)NC(=O)[C@@H](Cc2c[nH]c3ccccc23)NC(=O)[C@H](Cc2ccc(O)cc2)NC(=O)[C@H](C)N(C)C(=O)[C@H](Cc2ccccc2)NC1=O [Cyclo-(N-Me-Ala-Tyr-D-Trp-Lys-Val-Phe)]?
bioavailability ([2]; phenylglyoxal 0 mg/ml): 7%; bioavailability ([2]; phenylglyoxal 25 mg/ml): 34%; bioavailability ([3]; phenylglyoxal 0 mg/ml): 1%; bioavailability ([3]; phenylglyoxal 25 mg/ml): 20%

With O=CC(=O)c1ccccc1 [Phenylglyoxal, phenyl glyoxal] as the compound, how does the “% Bioavailability of Ara-C” value [1] read?
Its value is 70.5%.

And the “0 min-90 min (quantity head is drawing 2) of Ara-C” value ([1]; 90 min)?
Its value is 798 ± 71.0 µg·min/mL.

For CO[C@@]1(NC(=O)Cc2cccs2)C(=O)N2C(C(=O)O)=C(COC(N)=O)CS[C@@H]21 [sodium cefoxitin, (6R-cis)-3-[[(Aminocarbonyloxy]methyl]-7-methoxy-8-oxo-7-[(2-thienylacetyl))amino]-5-thia-1-azabicyclo-[4.2.0]oct-2-ene-2-carboxylic acid], which bioavailability ([4]; rat, in vivo) is on record?
The bioavailability was 5%.

Which “% bioavailability, control formulations” value ([4]; rectal, control formulation without keto aldehyde adjuvant, mean, 3 animals) does the source give for gentamicin sulfate here?
Its value is 5%.
